Data taken from patent US20120190666A1, “Heteroaryl Compounds as PIKK Inhibitors” (Amgen Inc., priority 2009, published 2012).

How the values were obtained:
[1] = tested on: phosphorylation of Akt at Serine 473 in U87 MG cells; experiment: pAkt AlphaScreen (U87 cell); assay type: cell-based; details: Homo sapiens, U-87 MG, 2 h; pAkt at Serine 473, U87 MG cells, two hours with compound
Procedure: The pAkt AlphaScreen® assay (PerkinElmer, Waltham, Mass.) determines whether there is phosphorylation of Akt at Serine 473 by recruitment of a phosphospecific antibody. This assay was performed using U87 MG cells. The U87 growth media consists of MEM (Gibco, Carlsbad, Calif.) supplemented with 10% FBS (Gibco), 1× Non-Essential Amino Acids (Gibco,) and 1× Penicillin/Streptomycin/Glutamine (Gibco). The cells were maintained weekly using 0.05% Trypsin (Gibco) and replated in 150 mm TC— Treated Culture Dishes (Corning, Corning, N.Y.).
The first day of the assay, the adherent cells were trypsinized, media was added to the loose cells and cells were mixed to a homogenous mixture. 0.5 ml of the homogenous mixture was counted on the Beckman Coulter® Vi-Cell™ XR (Fullerton, Calif.). 50 frames of cells were counted and the number of viable cells was determined. The cells were then diluted to 0.25 million cells per ml, and centrifuged at 200 rcf for 5 minutes. The media was removed and the cells were reconstituted in fresh media for plating. The cells were plated at 20 μl per well on the PerkinElmer® FlexDrop PLUS in Low Volume 384 Well White Tissue Culture Plates (Corning) with a final cell density of 5K cells per well. The plates were incubated overnight at 37° Celsius, 5% CO2.
On the second day, the compound plates were prepared, the cells were treated with compound and the pAkt reaction mix was added to the cell lysate. 384 well compound plates were prepared containing 1 μl of compound per well starting at 5 mM and diluted 1:2 across the row, resulting in a 22 well serial dilution. 39 μl of growth media was added to the compound plate in rows 1-22 using the PerkinElmer® FlexDrop PLUS resulting in a DMSO concentration of 2.5%. The cell plates and diluted compound plates were put onto the VELOCITY11™ VPREP™ 384 ST where the compound plate was mixed and 5 μl of serially diluted compound or controls was added to the cell plate. The final concentration of the compounds was 25 μM serially diluted to 11.9 pM in 0.5% DMSO.
The cell plates were then incubated with compound for two hours at 37° C., 5% CO2. After two hours, the media in the cell plates was aspirated using the BioTek® ELx405HT plate washer (Winooski, Vt.) removing the majority of media and compound without disturbing the adherent U87 cells. The following assay reagents are components of the SureFire® Akt (Ser 473) Phosphorylation 50K Point Kit (TGR BioSciences, Adelaide, Austalia) and an IgG Detection Kit (PerkinElmer, Waltham, Mass.). 5 μl of 1× Lysis Buffer was added to each well using the PerkinElmer® FlexDrop PLUS. The plates were then incubated at room temperature on a shaker for ten minutes. The AlphaScreen® reaction was prepared under low light conditions (subdued or green light) including p-Aid (Ser 473) Reaction Buffer, Dilution Buffer, Activation Buffer, Acceptor Beads and Donor Beads at a ratio of 40:20:10:1:1 respectively. The AlphaScreen® reaction was added to the cell lysate at 6 μl per well using the PerkinElmer® FlexDrop PLUS. The plates were placed in a humid environment to reduce edge effects and incubated overnight at room temperature with restricted air flow in the dark.
On the final day of the experiment, the plates were read on the PerkinElmer® EnVision™ 2103 Multilable Reader using the standard AlphaScreen® readout. The POC is calculated and the data is analyzed to report the IC50 IP for pAkt at Serine 473.
Activity data for the compounds tested in the PI3K cell based Akt assay is provided in Table 1 under the column heading U87

PI3Kα = biological target: T1, PI3Kα (Homo sapiens, UniProt P42336); experiment: In vitro PI3K AlphaScreen assay, PI3Kα; assay type: biochemical; details: PI(4,5)P2 substrate, 20 minutes at room temperature, read-out: P13Kalpha IC50 um
T1 construct: Full length p110 subunits of PI3K α, β and δ, N-terminally labeled with polyHis tag; polyHis (N); made in house; host or cells: Sf9 insect cells (baculovirus)
T1 sequence (P42336 whole entry): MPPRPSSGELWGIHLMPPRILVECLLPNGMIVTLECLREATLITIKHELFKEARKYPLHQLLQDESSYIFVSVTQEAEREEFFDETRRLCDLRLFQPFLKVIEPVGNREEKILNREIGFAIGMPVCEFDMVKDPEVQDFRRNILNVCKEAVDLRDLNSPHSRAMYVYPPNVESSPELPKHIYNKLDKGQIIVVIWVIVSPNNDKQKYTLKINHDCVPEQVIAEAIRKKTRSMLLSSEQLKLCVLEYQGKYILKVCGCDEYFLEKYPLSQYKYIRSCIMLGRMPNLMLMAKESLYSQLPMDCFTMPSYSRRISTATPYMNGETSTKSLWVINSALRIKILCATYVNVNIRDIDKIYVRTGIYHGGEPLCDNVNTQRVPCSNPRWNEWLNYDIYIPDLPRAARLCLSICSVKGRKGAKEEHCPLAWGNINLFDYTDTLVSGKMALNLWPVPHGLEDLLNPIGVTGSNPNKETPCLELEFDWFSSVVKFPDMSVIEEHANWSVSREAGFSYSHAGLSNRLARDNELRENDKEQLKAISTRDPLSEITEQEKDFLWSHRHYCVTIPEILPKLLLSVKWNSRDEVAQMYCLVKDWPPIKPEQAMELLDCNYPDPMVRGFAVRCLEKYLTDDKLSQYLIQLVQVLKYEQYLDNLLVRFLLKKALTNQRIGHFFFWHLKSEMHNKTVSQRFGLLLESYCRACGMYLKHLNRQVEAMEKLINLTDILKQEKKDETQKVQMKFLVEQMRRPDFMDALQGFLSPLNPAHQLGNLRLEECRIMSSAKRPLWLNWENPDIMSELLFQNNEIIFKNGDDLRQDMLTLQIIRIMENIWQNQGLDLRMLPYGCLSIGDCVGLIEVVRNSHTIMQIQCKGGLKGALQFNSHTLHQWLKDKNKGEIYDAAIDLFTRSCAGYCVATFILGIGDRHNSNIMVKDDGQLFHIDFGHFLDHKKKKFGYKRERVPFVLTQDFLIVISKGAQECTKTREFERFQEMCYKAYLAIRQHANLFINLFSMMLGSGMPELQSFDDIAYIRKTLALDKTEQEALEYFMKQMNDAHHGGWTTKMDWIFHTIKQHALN
T1 sequence (P27986 whole entry partner): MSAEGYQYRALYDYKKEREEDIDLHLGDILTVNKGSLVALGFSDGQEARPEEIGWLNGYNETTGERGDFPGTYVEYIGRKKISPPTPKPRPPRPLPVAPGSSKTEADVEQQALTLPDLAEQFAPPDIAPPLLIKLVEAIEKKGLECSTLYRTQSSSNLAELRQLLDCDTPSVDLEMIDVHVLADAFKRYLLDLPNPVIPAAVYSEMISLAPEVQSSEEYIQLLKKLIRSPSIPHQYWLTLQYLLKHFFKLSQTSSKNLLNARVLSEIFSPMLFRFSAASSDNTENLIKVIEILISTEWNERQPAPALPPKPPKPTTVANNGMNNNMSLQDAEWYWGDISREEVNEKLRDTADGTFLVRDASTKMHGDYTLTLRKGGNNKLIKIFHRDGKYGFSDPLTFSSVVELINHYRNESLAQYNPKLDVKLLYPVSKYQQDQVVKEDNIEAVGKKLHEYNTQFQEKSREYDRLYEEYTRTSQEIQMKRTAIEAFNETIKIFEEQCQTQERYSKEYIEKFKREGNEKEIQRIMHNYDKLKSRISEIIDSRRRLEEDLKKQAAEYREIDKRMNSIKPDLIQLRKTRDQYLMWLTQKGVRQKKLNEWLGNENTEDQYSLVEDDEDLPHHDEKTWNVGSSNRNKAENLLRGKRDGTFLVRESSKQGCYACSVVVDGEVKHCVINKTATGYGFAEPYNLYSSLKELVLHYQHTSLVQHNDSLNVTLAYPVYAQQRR
Procedure: The PI3K AlphaScreen® assay (PerkinElmer, Waltham, Mass.) measures the activity of a panel of four phosphoinositide 3-kinases: PI3Kα, PI3KIβ, PI3Kγ, and PI3Kδ. Each of these enzymes phosphorylates the 3′-hydroxyl group on phosphatidylinositiol (4,5)-bisphosphate (PIP2) to produce phosphatidylinositol (3,4,5)-trisphosphate (PIP3). This phosphorylation activity is measured using a GST-tagged PIP3 binding protein (Echelon Biosciences, Salt Lake City, Utah), an anti-GST-tagged Acceptor bead, and streptavidin-Donor bead. The interaction of biotinylated-PIP3 analog (IP4) and the PIP3 binding protein brings both Acceptor and Donor beads together producing, upon excitation of the Donor beads at 680 nm, a singlet oxygen species leading to the luminescent AlphaScreen® signal. When PIP3 is produced via phosphorylation of PIP2 by a PI3K, PIP3 competes with biotinylated-PIP3 analog (IP4) for binding to the PIP3 binding protein. In the absence of this interaction, proximity of the Donor and Acceptor beads is decreased, producing a loss of luminescent signal which is […] to PI3K activity. […] The enzyme reaction buffer is made using sterile water (Baxter, Deerfield, Ill.) and 50 mM Tris HCl pH 7, 14 mM MgCl2, 2 mM sodium cholate, and 100 mM NaCl. 2 mM DTT is added fresh the day of the experiment. The AlphaScreen® reaction buffer is made using sterile water and 10 mM Tris HCl pH 7.5, 150 mM NaCl, 0.10% Tween 20, and 30 mM EDTA. 1 mM DTT is added fresh the day of the experiment. The source plates for this assay are 384-well Greiner clear polypropylene plates containing test compounds at 5 mM and diluted 1:2 over 22 points. Columns 23 and 24 contain only DMSO as these are designated for positive and negative controls. Source plates are replicated into 384-well Optiplates (PerkinElmer, Waltham, Mass.), 0.5 μL/well, to make assay-ready plates. The different PI3K isoforms are each diluted in enzyme reaction buffer to 2× working solutions. PI3Kα is diluted to 1.6 nM, PI3Kβ is diluted to 0.8 nM, PI3Kγ is diluted to 15 nM, and PI3Kδ is diluted to 1.6 nM. Two different 2× substrate solutions are made in enzyme reaction buffer. In one solution, PI(4,5)P2 (Echelon Biosciences, Salt Lake City, Utah) is diluted to 10 μM and ATP is diluted to 20 μM. This solution is used in the assays testing PI3Kα and PI3Kβ. In a second solution, PI(4,5)P2 is diluted to 10 μM and ATP is diluted to 80 μM. This solution is used in the assays testing PI3Kγ and PI3Kδ. The AlphaScreen® reaction solutions are made using beads from the anti-GST AlphaScreen® kit (PerkinElmer, Waltham, Mass.). Two solutions are made in Alphascreen reaction buffer to 4× working concentrations. In one solution, biotinylated-IP4 (Echelon Biosciences, Salt Lake City, Utah) is diluted to 40 nM and streptavadin-Donor Beads are diluted to 80 μg/mL. In the second solution, PIP3-binding protein (Echelon Biosciences, Salt Lake City, Utah) is diluted to 40 nM and anti-GST-Acceptor Beads are diluted to 80 μg/mL. 10 μL/well of enzyme reaction buffer is added to Column 24 of the assay ready plates in place of enzyme. This is done for plates in the PI3Kα, β, and δ assays. Using a 384-well dispensing Multidrop (Titertek, Huntsville, Ala.), 10 μL/well of 2× enzyme (PI3Kα, β, δ) is added to Columns 1-23 of the appropriate assay ready plates (for PI3Kγ 10 μL is added to Columns 1-24). 10 μL/well of the appropriate substrate solution (the solution with 20 μM ATP for PI3Kα and β assays, and the solution with […] for PI3Kγ and δ assays) is then added to Columns 1-24 of the plates. Plates are then incubated at room temperature for 20 minutes. In the dark, 10 μL/well of the Donor Bead solution is added to Columns 1-24 of the plates to quench the enzyme reaction. The plates are incubated at room temperature for 30 minutes. Still in the dark, 10 μL/well of the Acceptor Bead solution is also added to Columns 1-24 of the plates. The plates are then incubated in the dark for 1.5 hours.

IC50 [1] [µM]	IC50 (PI3Kα) [µM]	Structure (SMILES)
0.04		COc1ccc(Nc2nc3ccccn3c2-c2nc(C)nc(N)n2)cn1 [Cpd 4, 3-(4-amino-6-methyl-1,3,5-triazin-2-yl)-N-(6-methoxypyridin-3-yl)imidazo[1,2-a]pyridin-2-amine]
0.026		COCCN1CCN(c2ccc3nc(Nc4cnc(OC)c(F)c4)c(-c4nc(C)nc(N)n4)n3c2)CC1 [Cpd 29, 3-(4-amino-6-methyl-1,3,5-triazin-2-yl)-N-(5-fluoro-6-methoxy-3-pyridinyl)-6-(4-(2-methoxyethyl)-1-piperazinyl)imidazo[1,2-a]pyridin-2-amine]
1.63	4.5	CNc1cc(-c2c(Nc3cc[nH]n3)nc3cc(N4CCOCC4)cnn23)nc(C)n1 [Cpd 88, 3-(2-methyl-6-(methylamino)-4-pyrimidinyl)-7-(4-morpholinyl)-N-1H-pyrazol-3-ylimidazo[1,2-b]pyridazin-2-amine]
3.92		Cc1nc(N)cc(-c2c(Nc3cccc(S(C)(=O)=O)c3)nc3cccnn23)n1 [Cpd 94, 3-(6-amino-2-methyl-4-pyrimidinyl)-N-(3-(methylsulfonyl)phenyl)imidazo[1,2-b]pyridazin-2-amine]
3.16	5.03	Cc1nc(NC(=O)Cc2cccc(F)c2)cc(-c2c(Nc3ccn(C)n3)nc3ccccn23)n1 [Cpd 128]
1.47	4.94	Cc1nc(NC(=O)Cc2ccc(F)cc2F)cc(-c2c(Nc3ccn(C)n3)nc3cccnn23)n1 [Cpd 129, 2-(2,4-difluorophenyl)-N-(2-methyl-6-(2-((1-methyl-1H-pyrazol-3-yl)amino)imidazo[1,2-b]pyridazin-3-yl)-4-pyrimidinyl)acetamide]
0.28		Cc1nc(Nc2ccc(N3CCOCC3)nn2)cc(-c2c(Nc3ccn(C)n3)nc3cccnn23)n1 [Cpd 149, 3-(2-methyl-6-((6-(4-morpholinyl)-3-pyridazinyl)amino)-4-pyrimidinyl)-N-(1-methyl-1H-pyrazol-3-yl)imidazo[1,2-b]pyridazin-2-amine]
	15.8	Cc1nc(N)cc(-c2c(Nc3ccn(C(=O)Nc4cc(C(F)(F)F)ccc4Cl)n3)nc3cccnn23)n1 [Cpd 246, 3-((3-(6-amino-2-methyl-4-pyrimidinyl)imidazo[1,2-b]pyridazin-2-yl)amino)-N-(2-chloro-5-(trifluoromethyl)phenyl)-1H-pyrazole-1-carboxamide]
3.15	33.4	COCCNC(=O)n1ccc(Nc2nc3cccnn3c2-c2cc(N)nc(C)n2)n1 [Cpd 264]
0.11	0.32	Cc1nc(N)cc(-c2c(Nc3ccc(N4CC(O)C4)nc3)nc3cccnn23)n1 [Cpd 272, 1-(5-((3-(6-amino-2-methyl-4-pyrimidinyl)imidazo[1,2-b]pyridazin-2-yl)amino)-2-pyridinyl)-3-azetidinol]
0.14	0.04	Cc1nc(N)nc(-c2c(Nc3ccc4cccnc4c3)nc3ccc(N4CCN(C(=O)N(C)C)CC4)cn23)n1 [Cpd 277, 4-(3-(4-amino-6-methyl-1,3,5-triazin-2-yl)-2-(7-quinolinylamino)-imidazo[1,2-a]pyridin-6-yl)-N,N-dimethyl-1-piperazinecarboxamide]
	0.09	COc1ccc(Nc2nc3ccc(N4CCN(C(C)=O)CC4)cn3c2-c2nc(C)nc(N)n2)cn1 [Cpd 285, 6-(4-acetyl-1-piperazinyl)-3-(4-amino-6-methyl-1,3,5-triazin-2-yl)-N-(6-methoxy-3-pyridinyl)imidazo[1,2-a]pyridin-2-amine]
0.71	0.3	Cc1nc(N)nc(-c2c(Nc3ccn[nH]3)nc3ccc(C(N)=O)cn23)n1 [Cpd 293, 3-(4-amino-6-methyl-1,3,5-triazin-2-yl)-2-(1H-pyrazol-5-ylamino)-imidazo[1,2-a]pyridine-6-carboxamide]
0.24	2.98	Cc1nc(NCC(F)(F)F)cc(-c2c(Nc3ccn[nH]3)nc3cccnn23)n1 [Cpd 295, 3-(2-methyl-6-((2,2,2-trifluoroethyl)amino)-4-pyrimidinyl)-N-1H-pyrazol-5-ylimidazo[1,2-b]pyridazin-2-amine]
0.95		Cc1nc(N)cc(-c2c(Nc3cccc(NC(=O)NC4CC4)c3)nc3cccnn23)n1 [Cpd 316, 1-(3-((3-(6-amino-2-methyl-4-pyrimidinyl)imidazo[1,2-b]pyridazin-2-yl)amino)phenyl)-3-cyclopropylurea]
	12	Cc1nc(N)cc(-c2c(Nc3cccc(NC(=O)Cc4ccccc4)c3)nc3ccccn23)n1 [Cpd 318, N-(3-((3-(6-amino-2-methyl-4-pyrimidinyl)imidazo[1,2-a]pyridin-2-yl)amino)phenyl)-2-phenylacetamide]
0.24	4.94	CNC(=O)c1cccc(Nc2nc3cccnn3c2-c2cc(N)nc(C)n2)c1 [Cpd 334]
